Experimental data: patent US20130315981A1, “METHOD FOR INDUCING FAT LOSS IN MAMMALS” (The Trustees of Columbia University in the City of New York, priority 2010, published 2013)

Tests used:
[1] = system: ATMs in perigonadal adipose tissue; assay: CL316,243 treatment of lean mice: ATM content in perigonadal adipose tissue; type: in vivo, C57BL/6J mice
Protocol: Ten 8-week-old C57BL/6J mice fed the standard pellet diet (see above) were injected intraperitoneally with 1 mg/kg of CL316,243 or saline twice (4 hours between each injection). Mice were sacrificed 14 hours after the second injection. Perigonadal adipose tissue was excised and samples were stored as described above.
Adipose tissue samples were fixed for 48 hours at room temperature in zinc-formalin fixative (Anatech Ltd.), incubated in 70% ethanol for 24 hours, and subsequently embedded in paraffin. […] For each individual adipose tissue depot, 5-10 different high-power fields from each of 3 different sections were analyzed. The total number of nuclei and the number of nuclei of F4/80-expressing cells were counted for each field. The fraction of F4/80-expressing cells for each sample was calculated as the sum of the number of nuclei of F4/80-expressing cells divided by the total number of nuclei in sections of a sample. Cross-sectional area was determined for each adipocyte in each field using image analysis software Image-Pro Plus (Media Cybernetics Inc.). For each mouse, 800-1000 adipocytes were counted. Adipocyte number was calculated from fat pad weight and adipocyte volume (48). […] For each individual adipose tissue depot, 10 different high-power fields from each of 3 different sections were analyzed. […]

[2] = system: perigonadal adipose tissue explants; assay: Lipolysis (FFA release) of perigonadal adipose tissue explants with isoproterenol; type: cell-based, C57BL/6J mice; parameters: dose or concentration left out as unconfirmed; conditions: explants from lean ad libitum-fed mice
Protocol: Perigonadal fat pads were surgically removed from high-fat-fed C57BL/6J mice (n=5/group), which were either ad libitum fed or were undergoing caloric restriction. Subsequently, they were washed several times with PBS. Tissue pieces (−100 mg total weight) were incubated in DMEM (Invitrogen) containing 2% fatty acid-free BSA (Sigma-Aldrich) at 37° C. Aliquots were collected after 120 minutes and investigated for FFA and glycerol content. FFA and glycerol were measured using the HR NEFA series (Wako Diagnostics) and the free glycerol determination kit (Sigma-Aldrich), respectively. We measured adipocyte numbers in parallel samples from weight- and fat-matched ad libitum-fed and calorically restricted mice.
(§1) Explant-conditioned media, plain media, or media containing recombinant MCP-1 (50 ng/ml) (PeproTech) were added into the lower chamber. To obtain explant-conditioned media, explants were isolated from lean 10-week-old C57BL/6J mice that were ad libitum fed or fasted for 24 hours. […] Explant FFA content was evaluated using the HR NEFA series (Wako Diagnostics). […] At the end of the incubation, cells were detected by a green fluorescent dye (CyQUANT dye) included in the assay. Fluorescence intensity was measured with the Infinite 500 (Tecan). Cell numbers were determined based on fluorescence readings and a standard curve.

[3] = system: bone marrow-derived macrophages (BMDMs); assay: Macrophage migration assay with explant-conditioned media; type: cell-based, C57BL/6J mice; conditions: explant-conditioned medium, isoproterenol-treated explants; comparable to MCP-1/CCL2 (50 ng/ml)
Excerpt: Murine BMDMs were differentiated in vitro from bone marrow precursor cells. Briefly, bone marrow cells were flushed from femurs and tibias of 9-week-old C57BL/6J mice, washed in DMEM (Invitrogen), and grown for 7 days in Petri dishes containing DMEM with 10% FBS, 20% L929 cell-conditioned media, 5% horse serum, 1% glutamine, and 1% sodium pyruvate. On the seventh day, media were replaced with DMEM containing 10% FBS, 10% L929 cell-conditioned media, 5% horse serum, 1% glutamine, and 1% sodium pyruvate; macrophages were grown for 3 more days. Differentiation was confirmed by FACS analysis. BMDM migration was evaluated using the QCM chemotaxis […] 96-well cell migration assay (Millipore) according to the manufacturer's instructions.
as §1

[4] = system: stromal vascular cells (SVCs); assay: Co-culture of SVCs with adipose tissue with or without isoproterenol; type: cell-based, C57BL/6J mice
Protocol: RNA was isolated from SVCs using the QIAGEN RNeasy Minikit (QIAGEN) and used as template for cDNA synthesis using Superscript III reverse transcriptase (Invitrogen) and random hexamer primers. Quantitative RT-PCR assays were carried out using DNA Engine Opticon 2 system instruments (Bio-Rad) and PCR SYBR Green I QuantiTect Master Mix (QIAGEN). The mRNA expression of all genes reported is normalized to the cyclophilin B (Ppib) gene expression. Every reaction was performed in duplicate, and the data were analyzed with the 2-DDCT method (49). To isolate SVCs, perigonadal adipose tissue was isolated from high-fat diet-induced obese C57BL/6J male mice immediately after CO2 asphyxiation. Tissues were handled using sterile techniques and minced into fine (<10 mg) pieces. For SVC isolation, minced samples were placed in DMEM (Invitrogen) supplemented with 10 mg/ml BSA (Sigma-Aldrich). An LPS-depleted collagenase cocktail (Liberase 3; Roche Applied Science) at a concentration of 0.03 mg/ml was added to the tissue suspension, and the samples were incubated at 37° C. on an orbital shaker (200 g) for 45 minutes. Once digestion was complete, samples were passed through a sterile 250-mm nylon mesh (Sefar America Inc.). The suspension was centrifuged at 500 g for 5 minutes. The pelleted cells were collected as SVCS. The SVCS were resuspended in erythrocyte lysis buffer (BD Biosciences) and incubated at room temperature for 1 minute. SVCS were plated at a concentration of 650,000 cells/well on cell culture inserts with 1-mm pore size (BD). Each insert was placed in a well of a 12-well tissue culture plate (BD) containing 100 mg of finely minced adipose tissue. To isolate small intact pieces of adipose tissue for culture, perigonadal adipose tissue was remove from high-fat-fed obese C57BL/6J mice and minced to approximately 10-mg size pieces. SVCS were cocultured with adipose tissue pieces for 24 hours in DMEM containing 10% FBS, 1% penicillin, and 2% fatty acid-free BSA. Isoproterenol (Sigma-Aldrich) was added in selected wells at a concentration of 10 mmoles/1. The stromal vascular fraction was collected for gene expression or oil red 0 staining after 24 hours. SVCS were air-dried and fixed with zinc-formalin fixative (see above) for 10 minutes and stained oil red O as previously described (50).

| Structure (SMILES) | increase of ATM content in perigonadal adipose tissue ([1]; lean C57BL/6J mice, 1 mg/kg intraperitoneally twice 4 hours apart, tissue 14 hours after final injection, vs control-treated mice) | inflammatory phenotype of adipose tissue (expression of inflammatory markers) ([1]; lean mice, CL316,243 vs vehicle, perigonadal adipose tissue) | lipolysis as release of FFA from explants [2] | chemotactic activity of adipose tissue toward BMDMs [3] | SVC gene expression or lipid accumulation ([4]; SVCs cultured in the absence of adipose tissue, 24 hours) | lipid accumulation within SVCs (oil red O) ([4]; coculture with adipose tissue plus isoproterenol) | Ccr2 gene expression in the SVC fraction ([4]; coculture with adipose tissue plus isoproterenol stimulation) | program of adipocyte differentiation in SVCs (adiponectin, leptin, Pparg expression) ([4]; in the presence of adipose tissue) | Adfp gene expression in SVCs ([4]; in the presence of adipose tissue, 24 hours) | Cd36 expression in SVCs ([4]; in the presence of adipose tissue, P=0.09) |
| --- | --- | --- | --- | --- | --- | --- | --- | --- | --- | --- |
| C[C@H](Cc1ccc2c(c1)OC(C(=O)[O-])(C(=O)[O-])O2)NC[C@H](O)c1cccc(Cl)c1.[Na+].[Na+] [CL316,243] | more than 5 fold | do not increase the inflammatory phenotype of adipose tissue |  |  |  |  |  |  |  |  |
| CC(C)NCC(O)c1ccc(O)c(O)c1 (stereo not shown) [isoproterenol] |  |  | increased lipolysis | proportional increase in the chemotactic activity | no effect | accumulation of lipid within SVCS | induced Ccr2 gene expression | no activation of a program of adipocyte differentiation | induced the expression of the gene Adfp | increased |
